Assay results reported in ChEMBL document CHEMBL4665778, “Discovery of Potent and Selective PI3Kγ Inhibitors” (J Med Chem, 2020).

Tests used:
[1] = Intrinsic clearance in human hepatocytes assessed per 10^6 cells at 0.5 uM by LC-MS/MS analysis; format: ADME, cell-based, Hepatocyte; settings: read-out: CLH
[2] = Intrinsic clearance rat hepatocytes assessed per 10^6 cells by LC-MS/MS analysis; format: ADME, tissue-based, Hepatocyte; settings: read-out: CLH
[3] = molecular target: PI3-kinase p110-alpha/p85-alpha (Homo sapiens, UniProt P42336)
Description: Inhibition of recombinant N-terminal FLAG-tagged full-length human PI3K p110alpha/human p85alpha co- expressed in Sf9 insect cells using phosphatidylinositol 4,5-bisphosphate as substrate preincubated for 60 mins followed by substrate addition and measured after 1 hr in presence of ATP by ADP-Glo lipid kinase assay

[4] = molecular target: T1, Phosphatidylinositol 4,5-bisphosphate 3-kinase catalytic subunit gamma isoform (Homo sapiens, UniProt P48736)
Description: Inhibition of recombinant N-terminal His-tagged full-length human PI3K p120gamma expressed in Sf9 insect cells using phosphatidylinositol 4,5-bisphosphate as substrate preincubated for 60 mins followed by substrate addition and measured after 1 hr in presence of ATP by ADP-Glo lipid kinase assay

[5] = molecular target: PI3-kinase p110-delta/p85-alpha (Homo sapiens, UniProt O00329)
Description: Inhibition of recombinant N-terminal GST-tagged full-length human PI3K p110delta/p85alpha co- expressed in Sf9 insect cells using phosphatidylinositol 4,5-bisphosphate as substrate preincubated for 60 mins followed by substrate addition and measured after 1 hr in presence of ATP by ADP-Glo lipid kinase assay

[6] = molecular target: T1, Phosphatidylinositol 4,5-bisphosphate 3-kinase catalytic subunit gamma isoform; remark: listed apart in the source
Description: Inhibition of PI3Kgamma in human THP-1 cells assessed as reduction in Akt phosphorylation at S473 residue incubated for 60 mins by alphalisa assay

[7] = Clearance in Sprague-Dawley rat at 0.25 mg/kg, iv by LC-MS/MS analysis; format: ADME, organism-based; settings: in vivo
[8] = Volume of distribution at steady state in Sprague-Dawley rat at 0.25 mg/kg, iv by LC-MS/MS analysis; format: ADME, organism-based; settings: in vivo, read-out: Vdss
Homo sapiens = organism: Homo sapiens; assay: Selectivity index, ratio of IC50 for N-terminal FLAG-tagged full-length human PI3K p110beta/human p85alpha to IC50 for recombinant N-terminal His-tagged full-length human PI3K p120gamma
PI3K p110 beta/p85 alpha = PI3K p110 beta/p85 alpha (Homo sapiens, UniProt P42338)
Description: Inhibition of recombinant N-terminal FLAG-tagged full-length human PI3K p110beta/human p85alpha co- expressed in Sf9 insect cells using phosphatidylinositol 4,5-bisphosphate as substrate preincubated for 60 mins followed by substrate addition and measured after 1 hr in presence of ATP by ADP-Glo lipid kinase assay

CYP3A4 = CYP3A4 (Homo sapiens, UniProt P08684); assay: in vitro; settings: liver microsomes, probe midazolam

T1 sequence (P48736 whole entry, canonical isoform): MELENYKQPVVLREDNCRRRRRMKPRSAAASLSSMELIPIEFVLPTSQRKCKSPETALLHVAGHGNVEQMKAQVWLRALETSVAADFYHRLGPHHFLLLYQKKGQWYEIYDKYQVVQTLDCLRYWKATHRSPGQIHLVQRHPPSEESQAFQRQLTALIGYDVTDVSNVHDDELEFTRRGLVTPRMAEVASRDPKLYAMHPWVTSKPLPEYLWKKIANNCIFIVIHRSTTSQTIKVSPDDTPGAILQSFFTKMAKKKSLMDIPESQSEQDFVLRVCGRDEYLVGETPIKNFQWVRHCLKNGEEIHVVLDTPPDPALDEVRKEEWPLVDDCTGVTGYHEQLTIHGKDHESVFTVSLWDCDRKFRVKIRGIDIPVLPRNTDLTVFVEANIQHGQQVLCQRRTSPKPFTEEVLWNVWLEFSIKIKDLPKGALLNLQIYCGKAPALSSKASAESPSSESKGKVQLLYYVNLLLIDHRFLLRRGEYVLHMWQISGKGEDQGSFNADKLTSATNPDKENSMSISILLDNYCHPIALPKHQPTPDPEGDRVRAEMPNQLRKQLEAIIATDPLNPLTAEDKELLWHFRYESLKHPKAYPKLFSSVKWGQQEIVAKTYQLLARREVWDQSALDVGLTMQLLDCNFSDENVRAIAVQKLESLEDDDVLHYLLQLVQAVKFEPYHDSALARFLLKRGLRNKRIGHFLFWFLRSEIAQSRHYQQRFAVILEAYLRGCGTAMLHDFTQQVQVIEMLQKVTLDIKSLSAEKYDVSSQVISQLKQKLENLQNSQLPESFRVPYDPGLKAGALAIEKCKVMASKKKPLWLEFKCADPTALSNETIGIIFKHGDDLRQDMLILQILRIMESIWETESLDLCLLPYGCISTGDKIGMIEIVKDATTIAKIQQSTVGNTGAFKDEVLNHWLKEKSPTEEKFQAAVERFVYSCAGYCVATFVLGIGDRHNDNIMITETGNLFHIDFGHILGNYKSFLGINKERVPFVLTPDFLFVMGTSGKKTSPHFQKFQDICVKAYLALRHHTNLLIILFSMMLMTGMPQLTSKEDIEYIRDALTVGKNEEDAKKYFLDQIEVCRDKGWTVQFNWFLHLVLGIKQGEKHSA
Chain of PI3-kinase p110-delta/p85-alpha (P27986 whole entry, canonical isoform): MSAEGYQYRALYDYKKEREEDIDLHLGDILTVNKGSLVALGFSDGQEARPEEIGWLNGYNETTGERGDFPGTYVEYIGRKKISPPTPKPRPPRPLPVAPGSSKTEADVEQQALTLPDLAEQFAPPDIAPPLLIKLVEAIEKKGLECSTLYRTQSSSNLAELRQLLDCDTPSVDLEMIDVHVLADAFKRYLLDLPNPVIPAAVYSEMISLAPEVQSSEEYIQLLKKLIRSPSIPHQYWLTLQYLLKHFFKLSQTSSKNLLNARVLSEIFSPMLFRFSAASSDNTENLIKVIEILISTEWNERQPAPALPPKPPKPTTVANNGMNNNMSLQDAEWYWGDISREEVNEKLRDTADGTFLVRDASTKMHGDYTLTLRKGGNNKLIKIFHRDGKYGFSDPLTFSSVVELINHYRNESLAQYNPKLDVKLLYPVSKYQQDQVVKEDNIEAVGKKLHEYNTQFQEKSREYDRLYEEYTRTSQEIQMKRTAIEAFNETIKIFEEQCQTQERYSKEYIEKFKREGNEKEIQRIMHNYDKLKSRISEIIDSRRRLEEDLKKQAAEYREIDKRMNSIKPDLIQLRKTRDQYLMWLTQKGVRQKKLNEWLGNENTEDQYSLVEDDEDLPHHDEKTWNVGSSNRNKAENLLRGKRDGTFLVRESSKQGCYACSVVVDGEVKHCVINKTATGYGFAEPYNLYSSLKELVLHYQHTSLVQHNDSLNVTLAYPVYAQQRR
Chain of PI3-kinase p110-delta/p85-alpha (O00329 whole entry, canonical isoform): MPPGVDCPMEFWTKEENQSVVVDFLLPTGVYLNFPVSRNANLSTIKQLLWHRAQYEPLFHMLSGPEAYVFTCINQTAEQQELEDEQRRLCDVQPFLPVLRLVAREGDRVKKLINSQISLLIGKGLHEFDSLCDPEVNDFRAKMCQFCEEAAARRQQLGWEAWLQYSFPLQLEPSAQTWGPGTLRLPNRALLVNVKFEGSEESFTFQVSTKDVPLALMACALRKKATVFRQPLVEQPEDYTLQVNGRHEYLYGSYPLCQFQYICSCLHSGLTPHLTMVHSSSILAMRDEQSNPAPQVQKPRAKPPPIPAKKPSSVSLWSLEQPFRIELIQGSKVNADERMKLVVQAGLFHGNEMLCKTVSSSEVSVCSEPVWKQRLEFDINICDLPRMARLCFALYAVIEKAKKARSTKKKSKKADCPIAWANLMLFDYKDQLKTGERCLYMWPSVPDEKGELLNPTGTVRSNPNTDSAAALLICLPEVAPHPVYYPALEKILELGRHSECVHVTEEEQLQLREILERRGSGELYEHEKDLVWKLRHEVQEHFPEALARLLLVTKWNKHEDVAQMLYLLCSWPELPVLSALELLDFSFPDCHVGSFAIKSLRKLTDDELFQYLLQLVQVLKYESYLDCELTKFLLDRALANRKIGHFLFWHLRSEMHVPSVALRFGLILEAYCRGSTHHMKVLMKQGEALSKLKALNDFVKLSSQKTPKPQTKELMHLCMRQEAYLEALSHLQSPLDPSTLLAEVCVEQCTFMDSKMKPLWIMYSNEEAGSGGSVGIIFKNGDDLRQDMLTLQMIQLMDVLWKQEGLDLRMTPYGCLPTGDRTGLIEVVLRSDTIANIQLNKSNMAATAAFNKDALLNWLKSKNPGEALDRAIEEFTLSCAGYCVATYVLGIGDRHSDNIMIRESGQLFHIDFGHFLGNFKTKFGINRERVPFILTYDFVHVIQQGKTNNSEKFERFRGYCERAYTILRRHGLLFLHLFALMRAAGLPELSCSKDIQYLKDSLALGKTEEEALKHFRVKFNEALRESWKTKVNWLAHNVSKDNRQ
Chain of PI3-kinase p110-alpha/p85-alpha (P27986 whole entry, canonical isoform): as the sequence (P27986 whole entry, canonical isoform) above
Chain of PI3-kinase p110-alpha/p85-alpha (P42336 whole entry, canonical isoform): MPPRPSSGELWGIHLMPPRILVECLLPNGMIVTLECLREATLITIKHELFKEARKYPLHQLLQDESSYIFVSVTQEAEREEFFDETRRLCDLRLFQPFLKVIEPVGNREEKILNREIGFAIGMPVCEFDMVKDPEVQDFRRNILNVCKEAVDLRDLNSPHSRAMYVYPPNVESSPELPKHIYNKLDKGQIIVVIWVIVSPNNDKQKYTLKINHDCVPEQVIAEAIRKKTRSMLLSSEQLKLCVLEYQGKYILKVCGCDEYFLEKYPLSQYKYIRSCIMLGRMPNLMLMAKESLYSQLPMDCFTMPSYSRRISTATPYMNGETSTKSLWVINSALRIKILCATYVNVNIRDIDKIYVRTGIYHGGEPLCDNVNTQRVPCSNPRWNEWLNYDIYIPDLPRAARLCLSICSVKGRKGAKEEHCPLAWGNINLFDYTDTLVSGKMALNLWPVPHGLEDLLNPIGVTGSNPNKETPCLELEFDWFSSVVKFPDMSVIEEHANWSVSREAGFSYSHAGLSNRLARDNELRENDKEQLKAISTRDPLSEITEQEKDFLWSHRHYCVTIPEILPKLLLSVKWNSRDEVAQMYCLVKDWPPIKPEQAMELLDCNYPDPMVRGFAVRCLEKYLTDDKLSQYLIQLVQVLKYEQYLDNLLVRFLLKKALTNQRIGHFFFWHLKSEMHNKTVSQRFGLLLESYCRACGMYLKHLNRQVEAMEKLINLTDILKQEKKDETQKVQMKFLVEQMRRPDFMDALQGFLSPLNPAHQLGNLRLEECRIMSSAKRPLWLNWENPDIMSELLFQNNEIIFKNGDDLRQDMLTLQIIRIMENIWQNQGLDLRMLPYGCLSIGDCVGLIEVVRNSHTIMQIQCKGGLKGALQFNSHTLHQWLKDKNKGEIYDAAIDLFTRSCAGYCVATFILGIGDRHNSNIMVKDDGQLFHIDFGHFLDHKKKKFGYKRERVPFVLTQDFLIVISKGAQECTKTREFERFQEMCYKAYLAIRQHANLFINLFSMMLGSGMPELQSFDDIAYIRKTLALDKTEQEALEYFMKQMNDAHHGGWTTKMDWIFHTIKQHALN
Chain of PI3K p110 beta/p85 alpha (P27986 whole entry): as the sequence (P27986 whole entry, canonical isoform) above
Chain of PI3K p110 beta/p85 alpha (P42338 whole entry): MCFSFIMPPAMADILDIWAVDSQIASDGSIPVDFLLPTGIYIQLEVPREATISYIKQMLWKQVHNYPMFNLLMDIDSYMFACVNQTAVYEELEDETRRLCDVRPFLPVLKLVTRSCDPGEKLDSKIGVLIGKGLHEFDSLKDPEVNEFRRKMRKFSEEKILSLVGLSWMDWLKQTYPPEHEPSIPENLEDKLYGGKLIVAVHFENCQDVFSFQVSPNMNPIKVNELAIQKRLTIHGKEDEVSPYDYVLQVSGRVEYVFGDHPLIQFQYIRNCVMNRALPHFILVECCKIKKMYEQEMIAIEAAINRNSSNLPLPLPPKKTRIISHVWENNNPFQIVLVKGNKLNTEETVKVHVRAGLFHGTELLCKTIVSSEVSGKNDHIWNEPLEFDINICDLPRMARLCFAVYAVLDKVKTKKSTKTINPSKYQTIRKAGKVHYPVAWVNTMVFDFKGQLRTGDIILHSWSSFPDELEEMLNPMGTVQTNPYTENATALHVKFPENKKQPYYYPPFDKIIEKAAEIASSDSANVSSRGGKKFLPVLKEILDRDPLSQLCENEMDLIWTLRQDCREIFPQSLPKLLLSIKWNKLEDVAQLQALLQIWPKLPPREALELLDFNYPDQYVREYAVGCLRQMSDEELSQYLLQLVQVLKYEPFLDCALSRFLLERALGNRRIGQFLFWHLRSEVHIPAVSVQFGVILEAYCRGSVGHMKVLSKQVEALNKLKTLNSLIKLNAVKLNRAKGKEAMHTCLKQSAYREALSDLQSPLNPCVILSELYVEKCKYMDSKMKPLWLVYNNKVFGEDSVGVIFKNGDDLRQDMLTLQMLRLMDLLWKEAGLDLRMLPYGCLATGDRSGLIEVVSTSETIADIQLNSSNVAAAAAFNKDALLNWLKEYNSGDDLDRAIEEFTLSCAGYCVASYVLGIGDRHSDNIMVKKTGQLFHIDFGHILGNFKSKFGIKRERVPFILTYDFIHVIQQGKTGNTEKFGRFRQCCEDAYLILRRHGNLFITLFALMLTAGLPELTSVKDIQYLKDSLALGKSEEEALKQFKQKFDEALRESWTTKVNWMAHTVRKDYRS

| IC50 [3] [µM] | IC50 [4] [µM] | IC50 [5] [µM] | IC50 [6] [µM] | Ratio IC50 (Homo sapiens) | IC50 (PI3K p110 beta/p85 alpha) [µM] | inhibition at 10 µM (CYP3A4) [%] | Structure (SMILES) | hepatocyte CLint at 0.5 µM [1] [µL/min/1e6 cells] | hepatocyte CLint [2] [µL/min/1e6 cells] | clearance [7] [mL/min/kg] | Vd [8] [L/kg] |
| --- | --- | --- | --- | --- | --- | --- | --- | --- | --- | --- | --- |
| 0.096 | 0.0022 | 0.21 | 0.21 | – | – | – | Cc1cc(-c2c(N)nn3ccc(-c4cc(C)c5c(c4)CN([C@@H](C)C4CC4)C5=O)nc23)ccc1C(=O)O | – | – | – | – |
| 0.194 | 0.0021 | 0.459 | 0.074 | 5520 | 11.6 | 13 | CC(C)c1cc(-c2cnn3ccc(-c4cc5c(c(C(F)(F)F)c4)C(=O)N([C@@H](C)C4CC4)C5)nc23)ccc1C(=O)O | < 1.2 | 1.7 | 86.7 | 25 |
| 2.73 | 0.0075 | 2.2 | 0.55 | – | – | – | Cc1cc(-c2ccn3nc(N)c(-c4ccncn4)c3n2)cc2c1C(=O)N([C@@H](C)C1CC1)C2 | – | – | – | – |
| 0.0824 | 0.001 | 0.125 | 0.076 | 10100 | 10.1 | – | CC(C)c1cc(-c2c(N)nn3ccc(-c4cc5c(c(C(F)(F)F)c4)C(=O)N([C@@H](C)C4CC4)C5)nc23)ccc1C(=O)O | – | – | – | – |
| > 10 | 0.429 | > 10 | 1.5 | – | – | – | CC(=O)Nc1nn2ccc(-c3cc(C)c4c(c3)CN([C@@H](C)C3CC3)C4=O)nc2c1-c1cnn(C)c1 | – | – | – | – |
| 1.51 | 0.0066 | 2.24 | 0.44 | – | – | – | Cc1c(-c2c(N)nn3ccc(-c4cc5c(c(C(F)(F)F)c4)C(=O)N([C@@H](C)C4CC4)C5)nc23)cnn1C | – | – | – | – |
| 1.16 | 0.0064 | 1.16 | 0.4 | – | – | – | Cc1cc(-c2ccn3nc(N)c(-c4cnn(CCO)c4)c3n2)cc2c1C(=O)N([C@@H](C)C1CC1)C2 | – | – | – | – |
| 6.29 | 0.031 | 6.05 | 0.63 | – | – | – | Cc1cc(-c2ccn3nc(N)c(-c4nc[nH]n4)c3n2)cc2c1C(=O)N([C@@H](C)C1CC1)C2 | – | – | – | – |
| 2.26 | 0.0059 | 3.25 | 0.23 | – | – | – | Cc1ncc(-c2c(N)nn3ccc(-c4cc(C)c5c(c4)CN([C@@H](C)C4CC4)C5=O)nc23)o1 | – | – | – | – |
| > 10 | 0.053 | > 10 | 0.8 | – | – | – | C[C@@H](C1CC1)N1Cc2cc(-c3ccn4nc(N)c(-c5ncccn5)c4n3)cc(C(F)(F)F)c2C1=O | – | – | – | – |
| 5.45 | 0.0021 | 4.66 | 0.87 | – | – | – | Cc1cc(-c2ccn3nc(N)c(-c4ccc(CC(=O)O)cc4)c3n2)cc2c1C(=O)N([C@@H](C)C1CC1)C2 | – | – | – | – |
| > 10 | 0.05 | > 10 | 3.1 | > 200 | > 10 | – | Cc1cc(-c2ccn3nc(N)nc3c2)cc2c1C(=O)N([C@@H](C)C1CC1)C2 | – | – | – | – |
| > 10 | 0.008 | 4.55 | 0.47 | – | – | – | Cc1nn(C)cc1-c1c(N)nn2ccc(-c3cc4c(c(C(F)(F)F)c3)C(=O)N([C@@H](C)C3CC3)C4)nc12 | – | – | – | – |
| 4.14 | 0.0091 | 3.44 | 0.3 | – | – | – | Cc1cc(-c2ccn3ncc(-c4cnn(C)c4)c3n2)cc2c1C(=O)N([C@@H](C)C1CC1)C2 | – | – | – | – |
| 1.98 | 0.044 | 2.69 | 0.62 | – | – | – | Cc1cc(-c2ccn3nc(N)c(-c4ccn[nH]4)c3n2)cc2c1C(=O)N([C@@H](C)C1CC1)C2 | – | – | – | – |
| > 10 | 0.06 | > 10 | 4.2 | – | – | – | Cc1cc(-c2ccn3nc(N)cc3n2)cc2c1C(=O)N([C@@H](C)C1CC1)C2 | – | – | – | – |
| > 10 | 0.064 | > 10 | 2.3 | – | – | – | Cc1cc(-c2ccn3nc(N)c(-c4ccccn4)c3n2)cc2c1C(=O)N([C@@H](C)C1CC1)C2 | – | – | – | – |

More lines, now with the values behind:

| Structure (SMILES) | IC50 [3] [µM] | IC50 [4] [µM] | IC50 [5] [µM] | IC50 [6] [µM] | Ratio IC50 (Homo sapiens) | IC50 (PI3K p110 beta/p85 alpha) [µM] | inhibition at 10 µM (CYP3A4) [%] | hepatocyte CLint at 0.5 µM [1] [µL/min/1e6 cells] | hepatocyte CLint [2] [µL/min/1e6 cells] | clearance [7] [mL/min/kg] | Vd [8] [L/kg] |
| --- | --- | --- | --- | --- | --- | --- | --- | --- | --- | --- | --- |
| CC(=O)Nc1cc2nc(-c3cc4c(c(C(F)(F)F)c3)C(=O)N([C@@H](C)C3CC3)C4)ccn2n1 | 8.34 | 0.0022 | 2.61 | 0.15 | – | – | – | 2.4 | < 1.2 | – | – |
| Cc1cc(-c2ccc3ncc(-c4cnn(C)c4)n3n2)cc2c1C(=O)N([C@@H](C)C1CC1)C2 | > 10 | 0.015 | 2.38 | 0.44 | – | – | – | – | – | – | – |
| CC(=O)Nc1nc2cc(-c3cc(C)c4c(c3)CN([C@@H](C)C3CC3)C4=O)ccc2[nH]1 (racemic) | > 10 | 0.482 | > 10 | 1 | > 21 | > 10 | – | – | – | – | – |
| CC(=O)Nc1cn2nc(-c3cc(C)c4c(c3)CN([C@@H](C)C3CC3)C4=O)ccc2n1 | > 10 | 0.0055 | > 10 | 0.45 | > 1820 | > 10 | – | – | – | – | – |
| Cc1cc(-c2ccc3nc(N)cn3n2)cc2c1C(=O)N([C@@H](C)C1CC1)C2 (racemic) | > 10 | 0.425 | > 10 | 1.5 | > 24 | > 10 | – | – | – | – | – |
| Cc1cc(-c2ccc3[nH]c(N)nc3c2)cc2c1C(=O)N([C@@H](C)C1CC1)C2 (racemic) | > 10 | > 10 | > 10 | – | – | > 10 | – | – | – | – | – |
| Cc1cc(-c2ccc3nc(N)nn3c2)cc2c1C(=O)N([C@@H](C)C1CC1)C2 (racemic) | > 10 | 0.291 | > 10 | 15 | > 34 | > 10 | – | – | – | – | – |
| Cc1cc(-c2ccc3nc(NC(=O)c4ccccc4)cn3n2)cc2c1C(=O)N([C@@H](C)C1CC1)C2 | > 10 | 0.093 | > 10 | 12 | – | – | – | – | – | – | – |
| CC(=O)Nc1cc2nc(-c3cc(C)c4c(c3)CN([C@@H](C)C3CC3)C4=O)ccn2n1 | > 10 | 0.0044 | > 10 | 0.24 | – | – | – | – | – | – | – |
| CC(=O)Nc1cc2nc(-c3cc4c(c(NS(C)(=O)=O)c3)C(=O)N([C@@H](C)C3CC3)C4)ccn2n1 | 8.97 | 0.0013 | 6.14 | 0.16 | – | – | – | – | – | – | – |
| COCC(=O)Nc1cn2nc(-c3cc(C)c4c(c3)CN([C@@H](C)C3CC3)C4=O)ccc2n1 | > 10 | 0.014 | > 10 | 0.69 | – | – | – | – | – | – | – |
| Cc1cc(-c2ccc3nc(N)c(-c4cnn(C)c4)n3n2)cc2c1C(=O)N([C@@H](C)C1CC1)C2 | > 10 | 0.017 | > 10 | 0.49 | – | – | – | – | – | – | – |
| Cc1cc(-c2ccc3nc(NC(=O)C(C)C)cn3n2)cc2c1C(=O)N([C@@H](C)C1CC1)C2 | > 10 | 0.07 | > 10 | 9.4 | – | – | – | – | – | – | – |
| CCC(=O)Nc1cn2nc(-c3cc(C)c4c(c3)CN([C@@H](C)C3CC3)C4=O)ccc2n1 | > 10 | 0.0073 | > 10 | 0.83 | – | – | – | – | – | – | – |
| Cc1cc(-c2ccc3nc(NS(C)(=O)=O)cn3n2)cc2c1C(=O)N([C@@H](C)C1CC1)C2 | > 10 | 5.3 | > 10 | > 30 | – | – | – | – | – | – | – |
| Cc1cc(-c2ccc3nc(NC(=O)N4CCC[C@H]4C(N)=O)cn3n2)cc2c1C(=O)N([C@@H](C)C1CC1)C2 | 2.47 | 0.0029 | 8.21 | 0.46 | – | – | – | – | – | – | – |
| C[C@@H](C1CC1)N1Cc2cc(-c3ccn4nc(N)c(-c5cnn(C)c5)c4n3)cc(C(F)(F)F)c2C1=O | 1.94 | 0.0019 | 1.31 | 0.064 | – | > 15 | – | 3.3 | 7.4 | 13 | 1.2 |
| CC(=O)Nc1nc2ccc(-c3cc(C)c4c(c3)CN([C@@H](C)C3CC3)C4=O)cn2n1 (racemic) | > 10 | 0.076 | > 10 | 3 | > 131 | > 10 | – | – | – | – | – |
| CNS(=O)(=O)c1cc(-c2ccn3nc(NC(C)=O)cc3n2)cc2c1C(=O)N([C@@H](C)C1CC1)C2 | 9.85 | 0.0027 | 4.55 | 0.24 | – | – | – | – | – | – | – |
